Measurements published in patent US20160113265A1, “[…] AND METHODS THEREOF” (Lanodir USA, Inc., priority 2014, published 2016).
Read-outs that look alike come from different tables or passages of the source.

Legend:
Amyelois transitella = details: exposed for 24 Hours at 26.7° C. (80° F.), cited from earlier work
Carpophilus hemipterus = details: exposed for 24 Hours at 26.7° C. (80° F.), cited from earlier work
Tribolium confusum = details: exposed for 24 Hours at 26.7° C. (80° F.), cited from earlier work
Orzaephilus surinamensis = details: exposed for 24 Hours at 26.7° C. (80° F.), cited from earlier work
Plodia interpunctella = details: exposed for 24 Hours at 26.7° C. (80° F.), cited from earlier work
Lasioderma serricorne = details: exposed for 24 Hours at 26.7° C. (80° F.), cited from earlier work
Tribolium castaneum = details: exposed for 24 Hours at 26.7° C. (80° F.), cited from earlier work
live pests = experiment: Condition of fumigated barge cargo on arrival at destination port (residues, live pests); assay type: in vivo; details: approximately two weeks later
Method: (§1) A fumigation apparatus, such as the fumigation apparatus 10 (FIGS. 1A-1C), was provided in a barge hatch at a source shipping port that was subsequently loaded with 2,700 metric tons of corn kernels (cargo). A dose of 2,600 g PH3 was injected (approximately 1.03 g PH3/ton cargo) without the use of a turbine (e.g., fan). A PH3 sensor was then used to measure the air quality immediately above the surface of the cargo and the gas concentration the approximately 1 meter below the surface of the cargo (using a probe) at predetermined time intervals.
as §1, with “On the same day as Experiment 1, a fumigation” for “A fumigation”, “at the” for “at a”, “of 2,200” for “of 2,600”, “(approximately 0.814” for “(approximately 1.03”, “cargo) with” for “cargo) without the use of”, “(e.g., fan) to push the PH3. The” for “(e.g., fan). A”
The day following Experiment 1 and Experiment 2, a fumigation apparatus, such as the fumigation apparatus 10 (FIGS. 1A-1C), was provided in a barge hatch at the source shipping port that was subsequently loaded with 2,700 metric tons of corn kernels (cargo). A dose of 1,700 g PH3 was injected (approximately […]) without auxiliary turbine and only with the air flow of the phosphine mixture delivery equipment itself (e.g., approximately 200 m^3/hour). The PH3 sensor was then used to measure the air quality immediately above the surface of the cargo and the gas concentration the approximately 1 meter below the surface of the cargo (using a probe) at predetermined time intervals.
The same day as Experiment 3, and eight days thereafter, nine barges were loaded and fumigated in a similar manner as in Experiment 3 to test repeatability.

P [PH3, phosphine gas]
Percent (%) Mortality adults (Amyelois transitella; 250 ppm PH3): 100% | Percent (%) Mortality eggs (Amyelois transitella; 250 ppm PH3): 0-78% | Percent (%) Mortality larvae (Amyelois transitella; 250 ppm PH3): 100% | Percent (%) Mortality pupae (Amyelois transitella; 250 ppm PH3): 100% | Percent (%) Mortality adults (Amyelois transitella; 500 ppm PH3): 100% | Percent (%) Mortality eggs (Amyelois transitella; 500 ppm PH3): 20-80% | Percent (%) Mortality larvae (Amyelois transitella; 500 ppm PH3): 100% | Percent (%) Mortality pupae (Amyelois transitella; 500 ppm PH3): 100% | Percent (%) Mortality adults (Amyelois transitella; 1000 ppm PH3): 100% | Percent (%) Mortality eggs (Amyelois transitella; 1000 ppm PH3): 70-100% | Percent (%) Mortality larvae (Amyelois transitella; 1000 ppm PH3): 100% | Percent (%) Mortality pupae (Amyelois transitella; 1000 ppm PH3): 100% | Percent (%) Mortality adults (Carpophilus hemipterus; 250 ppm PH3): 100% | Percent (%) Mortality eggs (Carpophilus hemipterus; 250 ppm PH3): 100% | Percent (%) Mortality larvae (Carpophilus hemipterus; 250 ppm PH3): 100% | Percent (%) Mortality pupae (Carpophilus hemipterus; 250 ppm PH3): 100% | Percent (%) Mortality adults (Carpophilus hemipterus; 500 ppm PH3): 100% | Percent (%) Mortality eggs (Carpophilus hemipterus; 500 ppm PH3): 100% | Percent (%) Mortality larvae (Carpophilus hemipterus; 500 ppm PH3): 100% | Percent (%) Mortality pupae (Carpophilus hemipterus; 500 ppm PH3): 100% | Percent (%) Mortality adults (Carpophilus hemipterus; 1000 ppm PH3): 100% | Percent (%) Mortality eggs (Carpophilus hemipterus; 1000 ppm PH3): 100% | Percent (%) Mortality larvae (Carpophilus hemipterus; 1000 ppm PH3): 100% | Percent (%) Mortality pupae (Carpophilus hemipterus; 1000 ppm PH3): 100% | Percent (%) Mortality adults (Tribolium confusum; 250 ppm PH3): 100% | Percent (%) Mortality eggs (Tribolium confusum; 250 ppm PH3): 59-80% | Percent (%) Mortality larvae (Tribolium confusum; 250 ppm PH3): 100% | Percent (%) Mortality pupae (Tribolium confusum; 250 ppm PH3): 89-95% | Percent (%) Mortality adults (Tribolium confusum; 500 ppm PH3): 100% | Percent (%) Mortality eggs (Tribolium confusum; 500 ppm PH3): 83-100% | Percent (%) Mortality larvae (Tribolium confusum; 500 ppm PH3): 100% | Percent (%) Mortality pupae (Tribolium confusum; 500 ppm PH3): 89-98% | Percent (%) Mortality adults (Tribolium confusum; 1000 ppm PH3): 100% | Percent (%) Mortality eggs (Tribolium confusum; 1000 ppm PH3): 100% | Percent (%) Mortality larvae (Tribolium confusum; 1000 ppm PH3): 100% | Percent (%) Mortality pupae (Tribolium confusum; 1000 ppm PH3): 94-100% | Percent (%) Mortality adults (Orzaephilus surinamensis; 250 ppm PH3): 100% | Percent (%) Mortality eggs (Orzaephilus surinamensis; 250 ppm PH3): 100% | Percent (%) Mortality larvae (Orzaephilus surinamensis; 250 ppm PH3): 97-100% | Percent (%) Mortality pupae (Orzaephilus surinamensis; 250 ppm PH3): 100% | Percent (%) Mortality adults (Orzaephilus surinamensis; 500 ppm PH3): 100% | Percent (%) Mortality eggs (Orzaephilus surinamensis; 500 ppm PH3): 100% | Percent (%) Mortality larvae (Orzaephilus surinamensis; 500 ppm PH3): 100% | Percent (%) Mortality pupae (Orzaephilus surinamensis; 500 ppm PH3): 100% | Percent (%) Mortality adults (Orzaephilus surinamensis; 1000 ppm PH3): 100% | Percent (%) Mortality eggs (Orzaephilus surinamensis; 1000 ppm PH3): 100% | Percent (%) Mortality larvae (Orzaephilus surinamensis; 1000 ppm PH3): 100% | Percent (%) Mortality pupae (Orzaephilus surinamensis; 1000 ppm PH3): 100% | Percent (%) Mortality adults (Plodia interpunctella; 250 ppm PH3): 100% | Percent (%) Mortality eggs (Plodia interpunctella; 250 ppm PH3): 89-96% | Percent (%) Mortality larvae (Plodia interpunctella; 250 ppm PH3): 95-100% | Percent (%) Mortality pupae (Plodia interpunctella; 250 ppm PH3): 100% | Percent (%) Mortality adults (Plodia interpunctella; 500 ppm PH3): 100% | Percent (%) Mortality eggs (Plodia interpunctella; 500 ppm PH3): 90-100% | Percent (%) Mortality larvae (Plodia interpunctella; 500 ppm PH3): 97-99% | Percent (%) Mortality pupae (Plodia interpunctella; 500 ppm PH3): 100% | Percent (%) Mortality adults (Plodia interpunctella; 1000 ppm PH3): 100% | Percent (%) Mortality eggs (Plodia interpunctella; 1000 ppm PH3): 95-100% | Percent (%) Mortality larvae (Plodia interpunctella; 1000 ppm PH3): 100% | Percent (%) Mortality pupae (Plodia interpunctella; 1000 ppm PH3): 100% | Percent (%) Mortality adults (Lasioderma serricorne; 250 ppm PH3): 100% | Percent (%) Mortality eggs (Lasioderma serricorne; 250 ppm PH3): 87-94% | Percent (%) Mortality larvae (Lasioderma serricorne; 250 ppm PH3): 100% | Percent (%) Mortality pupae (Lasioderma serricorne; 250 ppm PH3): 100% | Percent (%) Mortality adults (Lasioderma serricorne; 500 ppm PH3): 100% | Percent (%) Mortality eggs (Lasioderma serricorne; 500 ppm PH3): 87-96% | Percent (%) Mortality larvae (Lasioderma serricorne; 500 ppm PH3): 100% | Percent (%) Mortality pupae (Lasioderma serricorne; 500 ppm PH3): 100% | Percent (%) Mortality adults (Lasioderma serricorne; 1000 ppm PH3): 100% | Percent (%) Mortality eggs (Lasioderma serricorne; 1000 ppm PH3): 96-100% | Percent (%) Mortality larvae (Lasioderma serricorne; 1000 ppm PH3): 100% | Percent (%) Mortality pupae (Lasioderma serricorne; 1000 ppm PH3): 100% | Percent (%) Mortality adults (Tribolium castaneum; 250 ppm PH3): 100% | Percent (%) Mortality eggs (Tribolium castaneum; 250 ppm PH3): 90-100% | Percent (%) Mortality larvae (Tribolium castaneum; 250 ppm PH3): 100% | Percent (%) Mortality pupae (Tribolium castaneum; 250 ppm PH3): 100% | Percent (%) Mortality adults (Tribolium castaneum; 500 ppm PH3): 100% | Percent (%) Mortality eggs (Tribolium castaneum; 500 ppm PH3): 100% | Percent (%) Mortality larvae (Tribolium castaneum; 500 ppm PH3): 100% | Percent (%) Mortality pupae (Tribolium castaneum; 500 ppm PH3): 100% | Percent (%) Mortality adults (Tribolium castaneum; 1000 ppm PH3): 100% | Percent (%) Mortality eggs (Tribolium castaneum; 1000 ppm PH3): 100% | Percent (%) Mortality larvae (Tribolium castaneum; 1000 ppm PH3): 100% | Percent (%) Mortality pupae (Tribolium castaneum; 1000 ppm PH3): 100% | cargo condition on arrival (residues and live pests) (live pests; Experiment 1: 2,600 g PH3 in 2,700 metric tons corn kernels, without turbine): free of residues and live pests | cargo condition on arrival (residues and live pests) (live pests; Experiment 2: 2,200 g PH3 in 2,700 metric tons corn kernels, with a turbine): free of residues and live pests | cargo condition on arrival (residues and live pests) (live pests; Experiment 3: 1,700 g PH3 in 2,700 metric tons corn kernels, without auxiliary turbine): free of residues and live pests | cargo condition on arrival (residues and live pests) (live pests; Experiment 4: nine additional barges fumigated as in Experiment 3): free of residues and live pests
